Measured values: ChEMBL document CHEMBL1201862, “PubChem BioAssay data set” (2004)
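Grown in 96-well plates, cells were treated for 48 hours with each compound at five concentrations. Insufficient inhibition: endpoint recorded as highest concentration tested. GI50 is the concentration that inhibits growth by half.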 Active and inactive are the calls of the source. Cut-off read from the data, not from the text of the source: active = GI50 up to about 1.1 µM and inactive = higher.

Experiments:
Assay in all cases: NCI anticancer screen, dose series, 48 h
HCT-116 = test system: HCT-116
HOP-62 = test system: HOP-62
KM12 = test system: KM12
UACC-62 = test system: UACC-62
HL-60 = test system: HL-60
HT-29 = test system: HT-29
SK-MEL-28 = test system: SK-MEL-28
U-251 = test system: U-251
IGROV-1 = test system: IGROV-1
OVCAR-8 = test system: OVCAR-8
SK-MEL-2 = test system: SK-MEL-2
MDA-N = test system: MDA-N
OVCAR-5 = test system: OVCAR-5
COLO 205 = test system: COLO 205
NCI/ADR-RES = test system: NCI/ADR-RES
SW-620 = test system: SW-620
LOX IMVI = test system: LOX IMVI
A549 = test system: A549
NCI-H522 = test system: NCI-H522
T47D = test system: T47D

Measured: GI50

Cc1noc(C)c1-n1nc2ccc3nonc3c2n1
inactive: HCT-116 56.6 µM | HOP-62 22.5 µM | KM12 > 100 µM | UACC-62 > 59.8 µM | HL-60 > 100 µM | HT-29 > 100 µM | SK-MEL-28 > 100 µM | U-251 30.1 µM | IGROV-1 81.7 µM | OVCAR-8 50.7 µM | SK-MEL-2 48.9 µM | MDA-N > 100 µM | OVCAR-5 > 100 µM | COLO 205 > 100 µM | NCI/ADR-RES > 100 µM | SW-620 > 100 µM | LOX IMVI > 100 µM | A549 > 100 µM | NCI-H522 > 78.7 µM | T47D > 67.3 µM

COc1cc(Br)cc2cc(-c3cn4ccsc4n3)c(=O)oc12
inactive: HCT-116 25.6 µM | HOP-62 29.1 µM | KM12 18.9 µM | UACC-62 22.2 µM | HL-60 29 µM | HT-29 40.2 µM | SK-MEL-28 46.2 µM | U-251 30 µM | IGROV-1 19.9 µM | OVCAR-8 45.8 µM | SK-MEL-2 58.9 µM | MDA-N 17 µM | OVCAR-5 68.1 µM | COLO 205 57.3 µM | NCI/ADR-RES 34.2 µM | SW-620 36 µM | LOX IMVI 49.4 µM | A549 30.3 µM | NCI-H522 31 µM | T47D 19.6 µM

CCn1c2c(c3c(C(=O)OC)c(O)ccc31)C(=O)c1ccccc1C2=O
inactive: HCT-116 13.1 µM | HOP-62 15.7 µM | KM12 16.6 µM | HL-60 22.1 µM | HT-29 19.3 µM | SK-MEL-28 16.9 µM | U-251 14.7 µM | IGROV-1 3.61 µM | OVCAR-8 11.6 µM | SK-MEL-2 11.5 µM | MDA-N 11.9 µM | OVCAR-5 18.4 µM | COLO 205 17.1 µM | NCI/ADR-RES 16.6 µM | SW-620 15 µM | LOX IMVI 13.2 µM | A549 13.9 µM | NCI-H522 5.9 µM | T47D 8.07 µM

O=C1c2ccccc2-c2[nH]c3cn[nH]c(=O)c3c21
inactive: HCT-116 38.6 µM | HOP-62 82 µM | KM12 > 100 µM | UACC-62 45.3 µM | HL-60 > 100 µM | HT-29 > 100 µM | U-251 > 100 µM | IGROV-1 23.1 µM | OVCAR-8 > 100 µM | SK-MEL-2 47.2 µM | MDA-N 61.4 µM | OVCAR-5 > 100 µM | COLO 205 89.5 µM | NCI/ADR-RES > 100 µM | SW-620 > 100 µM | LOX IMVI 78.5 µM | A549 > 100 µM | NCI-H522 13.4 µM | T47D > 100 µM
